From the supplement of paper PMC13207355
Structures can show the parent of a compound that is named as a salt.

How the values were obtained:
Conditions in all cases: exposure time: 72 h
[1] = test system: E13 (patient-derived glioblastoma stem cells of classical subtype); assay: surviving fraction (nuclei count normalised to DMSO); higher = more cells surviving (less toxic)
[2] = test system: E21 (patient-derived glioblastoma stem cells of mesenchymal subtype); assay: as above
[3] = test system: E28 (patient-derived glioblastoma stem cells of classical subtype); assay: as above
[4] = test system: E31 (patient-derived glioblastoma stem cells of proneural subtype); assay: as above
[5] = test system: E34 (patient-derived glioblastoma stem cells of proneural subtype); assay: as above
[6] = test system: E57 (patient-derived glioblastoma stem cells of mesenchymal subtype); assay: as above
[7] = test system: FT3469 (normal neural stem cell line); assay: as above
[8] = test system: E13; assay: phenotypic distance (Euclidean, principal components) from DMSO controls (arbitrary units); higher = stronger morphological change
[9] = test system: E21; assay: as above
[10] = test system: E28; assay: as above
[11] = test system: E31; assay: as above
[12] = test system: E34; assay: as above
[13] = test system: E57; assay: as above
[14] = test system: FT3469; assay: as above
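For phenotypic distance (Euclidean, principal components) from DMSO controls in this document: cell Painting imaging in 384-well plates, CellProfiler features reduced to at least 20 principal components, Euclidean distance versus same-plate DMSO vehicle wells (0.1% v/v), median over six images per well.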
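For surviving fraction (nuclei count normalised to DMSO) in this document: nuclei counted by high-content imaging of Hoechst-stained cells in laminin-coated 384-well plates, relative to 0.1% DMSO vehicle wells, with staurosporine as cell-death control.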

C[C@@H]1CN([C@H]2CC[C@](C#N)(c3ccc(F)cc3)CC2)CC[C@]1(C(=O)O)c1ccccc1 [Levocabastine hydrochloride]
Conditions	phenotypic distance	surviving fraction
[1], 4.1 nM	–	0.997
[1], 12.3 nM	–	1.04
[1], 37 nM	–	1.06
[1], 111.1 nM	–	0.914
[1], 333.3 nM	–	1.05
[1], 1000 nM	–	0.985
[1], 3000 nM	–	0.918
[2], 4.1 nM	–	0.99
[2], 12.3 nM	–	1.15
[2], 37 nM	–	0.977
[2], 111.1 nM	–	1.12
[2], 333.3 nM	–	1.11
[2], 1000 nM	–	1.12
[2], 3000 nM	–	0.854
[3], 4.1 nM	–	1.07
[3], 12.3 nM	–	1.17
[3], 37 nM	–	1.13
[3], 111.1 nM	–	1.1
[3], 333.3 nM	–	1.1
[3], 1000 nM	–	1.12
[3], 3000 nM	–	0.949
[4], 4.1 nM	–	1.11
[4], 12.3 nM	–	1.06
[4], 37 nM	–	1.13
[4], 111.1 nM	–	1.01
[4], 333.3 nM	–	1.17
[4], 1000 nM	–	1.06
[4], 3000 nM	–	1.06
[5], 4.1 nM	–	1.01
[5], 12.3 nM	–	0.8
[5], 37 nM	–	1.25
[5], 111.1 nM	–	0.952
[5], 333.3 nM	–	0.972
[5], 1000 nM	–	0.909
[5], 3000 nM	–	1.22
[6], 4.1 nM	–	1.09
[6], 12.3 nM	–	1.02
[6], 37 nM	–	0.987
[6], 111.1 nM	–	1.11
[6], 333.3 nM	–	1.08
[6], 1000 nM	–	0.975
[6], 3000 nM	–	0.994
[7], 4.1 nM	–	1.08
[7], 12.3 nM	–	1.15
[7], 37 nM	–	1.05
[7], 111.1 nM	–	1.11
[7], 333.3 nM	–	1.04
[7], 1000 nM	–	1.07
[7], 3000 nM	–	0.784
[8], 4.1 nM	0.774	–
[8], 12.3 nM	0.599	–
[8], 37 nM	0.564	–
[8], 111.1 nM	0.596	–
[8], 333.3 nM	0.491	–
[8], 1000 nM	0.354	–
[8], 3000 nM	0.712	–
[9], 4.1 nM	0.745	–
[9], 12.3 nM	0.621	–
[9], 37 nM	0.743	–
[9], 111.1 nM	0.866	–
[9], 333.3 nM	0.582	–
[9], 1000 nM	0.688	–
[9], 3000 nM	3.41	–
[10], 4.1 nM	0.787	–
[10], 12.3 nM	0.763	–
[10], 37 nM	0.863	–
[10], 111.1 nM	0.374	–
[10], 333.3 nM	0.741	–
[10], 1000 nM	0.713	–
[10], 3000 nM	1.04	–
[11], 4.1 nM	0.412	–
[11], 12.3 nM	0.744	–
[11], 37 nM	0.868	–
[11], 111.1 nM	0.539	–
[11], 333.3 nM	0.794	–
[11], 1000 nM	0.681	–
[11], 3000 nM	0.779	–
[12], 4.1 nM	0.554	–
[12], 12.3 nM	1.09	–
[12], 37 nM	0.93	–
[12], 111.1 nM	0.824	–
[12], 333.3 nM	0.742	–
[12], 1000 nM	0.79	–
[12], 3000 nM	0.624	–
[13], 4.1 nM	1.04	–
[13], 12.3 nM	0.495	–
[13], 37 nM	0.313	–
[13], 111.1 nM	0.928	–
[13], 333.3 nM	4.21	–
[13], 1000 nM	0.708	–
[13], 3000 nM	0.745	–
[14], 4.1 nM	0.782	–
[14], 12.3 nM	0.792	–
[14], 37 nM	0.998	–
[14], 111.1 nM	0.719	–
[14], 333.3 nM	3.75	–
[14], 1000 nM	0.437	–
[14], 3000 nM	3.86	–
